Test: xn = mol fraction of the nth substance listed
Conditions: 101 kPa, Liquid; for speed of sound: Frequency=2 MHz, Sing-around technique in a fixed-path interferometer; for viscosity: Oscillating disk viscometry; for mass density: Vibrating tube method

OC1CCCCC1 [cyclohexanol] + CN1CCCC1=O
Conditions	mass density [kg/m3]	speed of sound [m/s]	viscosity [mPa·s]
303.15 K, x2 = 0	941.32	1443.2	41.07
303.15 K, x2 = 0.1088	952.25	1462.3	36.8
303.15 K, x2 = 0.2155	962.68	1480.5	32.6
303.15 K, x2 = 0.3201	973.14	1495.7	28.48
303.15 K, x2 = 0.4228	983.38	1508.8	24.44
303.15 K, x2 = 0.5235	992.24	1520.5	20.47
303.15 K, x2 = 0.6223	999.61	1530.5	16.55
303.15 K, x2 = 0.7194	1005.72	1538.4	12.7
303.15 K, x2 = 0.8146	1011.65	1544.3	8.912
303.15 K, x2 = 0.9081	1017.47	1549.2	5.186
308.15 K, x2 = 0	937.23	1419.6	27.95
308.15 K, x2 = 0.1088	948.65	1440.8	25.09
308.15 K, x2 = 0.2155	959.48	1458.7	22.27
308.15 K, x2 = 0.3201	970.04	1473.4	19.52
308.15 K, x2 = 0.4228	979.96	1486.2	16.81
308.15 K, x2 = 0.5235	988.83	1497.5	14.15
308.15 K, x2 = 0.6223	996.39	1506.9	11.52
308.15 K, x2 = 0.7194	1002.69	1515.1	8.928
308.15 K, x2 = 0.8146	1008.39	1521.2	6.381
308.15 K, x2 = 0.9081	1014.23	1525.2	3.878
313.15 K, x2 = 0	933.48	1395.2	16.66
313.15 K, x2 = 0.1088	945.29	1418.3	15.01
313.15 K, x2 = 0.2155	956.55	1436.2	13.39
313.15 K, x2 = 0.3201	967.18	1450.8	11.81
313.15 K, x2 = 0.4228	976.72	1463.7	10.25
313.15 K, x2 = 0.5235	985.29	1475.1	8.714
313.15 K, x2 = 0.6223	992.87	1484.6	7.194
313.15 K, x2 = 0.7194	999.41	1492.4	5.69
313.15 K, x2 = 0.8146	1005.24	1498.2	4.211
313.15 K, x2 = 0.9081	1010.33	1500.6	2.76
318.15 K, x2 = 0	928.11	1370.8	8.888
318.15 K, x2 = 0.1088	940.43	1395.7	8.064
318.15 K, x2 = 0.2155	952.24	1413.7	7.26
318.15 K, x2 = 0.3201	963.21	1428.6	6.472
318.15 K, x2 = 0.4228	972.85	1441.9	5.694
318.15 K, x2 = 0.5235	981.32	1453.3	4.926
318.15 K, x2 = 0.6223	988.87	1462.8	4.163
318.15 K, x2 = 0.7194	995.46	1471.1	3.406
318.15 K, x2 = 0.8146	1001.47	1476.7	2.658
318.15 K, x2 = 0.9081	1006.79	1477.6	1.924

C1=CCCCC1 [cyclohexene] + CN1CCCC1=O
Conditions	mass density [kg/m3]	speed of sound [m/s]	viscosity [mPa·s]
303.15 K, x2 = 0	801.81	1252.1	0.581
303.15 K, x2 = 0.1052	818.56	1267.5	0.612
303.15 K, x2 = 0.2091	834.84	1285.6	0.653
303.15 K, x2 = 0.3119	851.21	1307.1	0.698
303.15 K, x2 = 0.4135	868.75	1330.4	0.748
303.15 K, x2 = 0.514	889.05	1356.2	0.812
303.15 K, x2 = 0.6134	912.45	1384.5	0.897
303.15 K, x2 = 0.7116	938.12	1417.6	1.009
303.15 K, x2 = 0.8088	964.81	1456.8	1.148
303.15 K, x2 = 0.9049	992.11	1502.7	1.315
308.15 K, x2 = 0	797.25	1224.8	0.549
308.15 K, x2 = 0.1052	811.04	1240.5	0.579
308.15 K, x2 = 0.2091	827.32	1258.2	0.618
308.15 K, x2 = 0.3119	844.1	1278.6	0.663
308.15 K, x2 = 0.4135	862.03	1301.5	0.715
308.15 K, x2 = 0.514	882.54	1326.4	0.775
308.15 K, x2 = 0.6134	906.06	1355.1	0.853
308.15 K, x2 = 0.7116	931.63	1388.3	0.954
308.15 K, x2 = 0.8088	957.89	1426.8	1.081
308.15 K, x2 = 0.9049	985.56	1472.5	1.235
313.15 K, x2 = 0	792.61	1196.6	0.516
313.15 K, x2 = 0.1052	804.12	1212.4	0.551
313.15 K, x2 = 0.2091	819.12	1230.5	0.587
313.15 K, x2 = 0.3119	836.04	1250.4	0.63
313.15 K, x2 = 0.4135	854.81	1273.5	0.68
313.15 K, x2 = 0.514	875.73	1298.8	0.742
313.15 K, x2 = 0.6134	899.06	1327.1	0.818
313.15 K, x2 = 0.7116	924.14	1360.3	0.914
313.15 K, x2 = 0.8088	950.51	1398.7	1.031
313.15 K, x2 = 0.9049	979.38	1444.1	1.171
318.15 K, x2 = 0	788.02	1169.6	0.488
318.15 K, x2 = 0.1052	798.05	1185.2	0.522
318.15 K, x2 = 0.2091	813.05	1202.2	0.558
318.15 K, x2 = 0.3119	829.52	1222.2	0.597
318.15 K, x2 = 0.4135	847.61	1245.2	0.642
318.15 K, x2 = 0.514	868.15	1270.4	0.698
318.15 K, x2 = 0.6134	891.64	1298.6	0.771
318.15 K, x2 = 0.7116	917.16	1330.3	0.856
318.15 K, x2 = 0.8088	943.71	1369.2	0.956
318.15 K, x2 = 0.9049	972.27	1416.1	1.072

NC1CCCCC1 [cyclohexylamine] + CN1CCCC1=O
Conditions	mass density [kg/m3]	speed of sound [m/s]	viscosity [mPa·s]
303.15 K, x2 = 0	857.71	1397.8	1.797
303.15 K, x2 = 0.1171	877.49	1424.2	1.791
303.15 K, x2 = 0.2299	896.91	1448.4	1.789
303.15 K, x2 = 0.3385	915.83	1469.1	1.784
303.15 K, x2 = 0.4432	933.86	1487.8	1.773
303.15 K, x2 = 0.5442	950.84	1504.3	1.754
303.15 K, x2 = 0.6417	966.69	1518.1	1.727
303.15 K, x2 = 0.7358	981.66	1530.2	1.693
303.15 K, x2 = 0.8268	995.81	1540.3	1.648
303.15 K, x2 = 0.9149	1009.73	1548.2	1.592
308.15 K, x2 = 0	853.14	1379.2	1.704
308.15 K, x2 = 0.1171	873.25	1406.8	1.69
308.15 K, x2 = 0.2299	892.71	1429.4	1.678
308.15 K, x2 = 0.3385	911.69	1449.1	1.668
308.15 K, x2 = 0.4432	929.76	1467.1	1.655
308.15 K, x2 = 0.5442	946.83	1483.1	1.636
308.15 K, x2 = 0.6417	962.86	1496.5	1.607
308.15 K, x2 = 0.7358	977.92	1507.7	1.569
308.15 K, x2 = 0.8268	992.5	1517.2	1.522
308.15 K, x2 = 0.9149	1006.41	1524.6	1.47
313.15 K, x2 = 0	848.61	1360.6	1.617
313.15 K, x2 = 0.1171	869.06	1389.2	1.6
313.15 K, x2 = 0.2299	888.52	1411.4	1.588
313.15 K, x2 = 0.3385	907.42	1430.5	1.575
313.15 K, x2 = 0.4432	925.48	1447.6	1.56
313.15 K, x2 = 0.5442	942.64	1462.5	1.541
313.15 K, x2 = 0.6417	958.87	1475.1	1.514
313.15 K, x2 = 0.7358	974.13	1485.7	1.477
313.15 K, x2 = 0.8268	988.74	1494.6	1.432
313.15 K, x2 = 0.9149	1002.53	1500.8	1.38
318.15 K, x2 = 0	844.07	1342	1.506
318.15 K, x2 = 0.1171	864.89	1371.7	1.484
318.15 K, x2 = 0.2299	884.43	1393.8	1.463
318.15 K, x2 = 0.3385	903.34	1412.2	1.442
318.15 K, x2 = 0.4432	921.45	1428.7	1.422
318.15 K, x2 = 0.5442	938.47	1443.2	1.401
318.15 K, x2 = 0.6417	954.68	1455.4	1.375
318.15 K, x2 = 0.7358	970.14	1465.4	1.341
318.15 K, x2 = 0.8268	984.78	1473.6	1.298
318.15 K, x2 = 0.9149	998.55	1477.8	1.251

Reference: the NIST ThermoML archive (doi:10.1016/j.tca.2014.06.026)
